Where two headings read alike, the source gives them in different places.
Experiments:
[1] = tested on: T1, HDAC; experiment: In vitro HDAC-inhibition assay (Fluor de Lys fluorescent substrate); assay type: biochemical; conditions: for IC50: in vitro HDAC enzyme source; for % Max Inhibition (in vitro): maximum inhibition
T1 construct: in vitro IC50; other: in vitro HDAC enzyme source
Procedure: In vitro HDAC-inhibition Assay:
This assay measures a compound's ability to inhibit acetyl-lysine deacetylation in vitro and was used as both a primary screening method as well as for IC50 determinations of confirmed inhibitors. The assay is performed in vitro using an HDAC enzyme source (e.g. partially purified nuclear extract or immunopurified HDAC complexes) and a proprietary fluorescent substrate/developer system (HDAC Quantizyme Fluor de Lys Fluorescent Activity Assay, BIOMOL). The assay is run in 1,536-well Greiner white-bottom plates using the following volumes and order of addition:
Step 1: Enzyme (2.5 ul) source added to plate (from refrigerated container) • Step 2: Compounds (50 nl) added with pin transfer device • Step 3: Fluor de Lys (2.5 ul) substrate added, incubate at RT, 30 minutes • Step 4: Developer (5 ul) solution is added (containing TSA), to stop reaction • Step 5: Plate Reader—data collection
The deacetylated fluorophore is excited with 360 nm light and the emitted light (460 nm) is detected on an automated fluorometric plate reader (Aquest, Molecular Devices).

[2] = tested on: HDAC in cells (cellular histone acetylation levels); experiment: Cellular histone hyperacetylation assay (cytoblot), cellular HDAC inhibition; assay type: cell-based; conditions: for IC50 / Cellular IC50: "active" = inhibitory activity but cellular IC50 could not be determined; for Emax / % Max. Inhibition (cellular): maximum inhibition; for Emax: read-out: % Max. Inhibition (cellular)
Procedure: Cellular Histone Hyperacetylation Assays:
These two secondary assays evaluates a compound's ability to inhibit HDAC in cells by measuring cellular histone acetylation levels. The cytoblot facilitates quantitative EC50 information for cellular HDAC inhibition. Transformed cell lines (e.g. HeLa, A549, MCF-7) are cultured under standard media and culture conditions prior to plating.
Cells (approx. 2,500/well) are allowed to adhere 10-24 hours to wells of a 384-well Greiner PS assay plate in media containing 1-5% serum. Cells are treated with appropriate compound and specific concentrations for 0 to 24 hours. Cells are washed once with PBS (60 ul) and then fixed (95% ethanol, 5% acetic acid or 2% PFA) for 1 minute at RT (30 ul). Cells are blocked with 1% BSA for 1 hour and washed and stained with antibody (e.g. anti-Acetylated Histone H3, Upstate Biotechnology), followed by washing and incubation with an appropriate secondary antibody conjugated to HRP or fluorophore. For luminescence assays, signal is generated using Luminol substrate (Santa Cruz Biotechnology) and detected using an Aquest plate reader (Molecular Devices).

[3] = tested on: HDAC; conditions: published value for positive control; read-out: published in vitro IC50; cited from earlier work

Row | Structure (SMILES) | IC50 [1] | IC50 [2] | Cellular IC50 [2] | % Max Inhibition (in vitro) [1] | Emax [2] | % Max. Inhibition (cellular) [2] | IC50 [3]
1 | CC(=O)Nc1ccc(C(=O)CSC#N)cc1 [Compound 7] | < 1000 nM | 1000 to 10000 nM | – | >75% | > 75% | – | –
2 | C[C@@H]1NC(=O)[C@H]2CCCN2C(=O)[C@H](CCCCCC(=O)[C@@H]2CO2)NC(=O)[C@@H](C)NC1=O [HC-toxin, reference compound] | < 1000 nM | – | – | >75% | – | – | –
3 | N#CSCC(=O)c1ccccc1 [Compound 1, 1-Phenyl-2-thiocyanato-ethanone] | 1000 to 10000 nM | – | active | >75% | – | – | –
4 | COc1ccc(C(=O)CSC#N)cc1 [Compound 10] | 1000 to 10000 nM | – | active | >75% | – | – | –
5 | Nc1ccccc1NC(=O)c1ccc(CNC(=O)OCc2cccnc2)cc1 [MS-275, reference compound] | > 10000 nM | 1000 to 10000 nM | – | >50% | – | >75% | –
6 | Cc1cc(C(=O)CSC#N)ccc1Cl [Compound 4] | < 1000 nM | 1000 to 10000 nM | – | >75% | > 75% | – | –
7 | COc1cccc(C(=O)CSC#N)c1 [Compound 9] | < 1000 nM | – | active | >75% | – | – | –
8 | O=C(CSSCC(=O)c1ccc(NS(=O)(=O)c2ccc(OC(F)(F)F)cc2)cc1)c1ccc(NS(=O)(=O)c2ccc(OC(F)(F)F)cc2)cc1 [Compound 47, Thioacetic acid S-{2-oxo-2-[4-(4-trifluoromethoxy-benzenesulfonylamino)-phenyl]-ethyl}disulfide] | < 1000 nM | < 1000 nM | – | >75% | > 75% | – | –
9 | COc1ccc(C(=O)CSC#N)cc1OC [Compound 12] | 1000 to 10000 nM | – | – | >75% | – | – | –
10 | N#CSCC(=O)c1cccc(Br)c1 [Compound 8] | < 1000 nM | – | active | >75% | – | – | –
11 | CC(=O)SCC(=O)c1ccc(NS(=O)(=O)c2ccc(OC(F)(F)F)cc2)cc1 [Compound 48, Thioacetic acid S-{2-oxo-2-[4-(4-trifluoromethoxy-benzenesulfonylamino)-phenyl]-ethyl}ester] | < 1000 nM | < 1000 nM | – | >75% | > 75% | – | –
12 | N#CSCC(=O)c1ccc(Cl)cc1 [Compound 6] | < 1000 nM | 1000 to 10000 nM | – | >75% | > 75% | – | –
13 | CC(/C=C/C(=O)NO)=C\[C@@H](C)C(=O)c1ccc(N(C)C)cc1 [TSA, reference compound] | < 1000 nM | < 1000 nM | – | 100% | – | 100% | 3 to 6 nM
14 | N#CSCC(=O)c1ccc(N2CCCC2)cc1 [Compound 11] | 1000 to 10000 nM | – | active | >50% | – | – | –
15 | CCN(CC)c1ccc(C(=O)CSC#N)cc1 [Compound 13] | 1000 to 10000 nM | – | active | >75% | – | – | –
16 | N#CSCC(=O)c1ccc(F)c(F)c1 [Compound 2] | < 1000 nM | – | active | >75% | – | – | –
17 | O=C(CS)c1ccc(Br)cc1 [Compound 41, 1-(4-Bromo-phenyl)-2-mercapto-ethanone] | < 1000 nM | – | active | >75% | > 75% | – | –
18 | COc1cccc(C(=O)CS)c1 [Compound 42] | 1000 to 10000 nM | > 10000 nM | – | >75% | > 75% | – | –

Second part, led by results:

Row | IC50 [1] | IC50 [2] | Cellular IC50 [2] | Structure (SMILES) | % Max Inhibition (in vitro) [1] | Emax [2] | % Max. Inhibition (cellular) [2] | IC50 [3]
19 | 1000 to 10000 nM | 1000 to 10000 nM | – | CC(=O)Nc1ccc(S(=O)(=O)Nc2ccc(C(=O)CSC3=NCCS3)cc2)cc1 [Compound 29, N-(4-{4-[2(4,5-Dihydro-thiazol-2-ylsulfanyl)-acetyl]-phenylsulfamoyl}-phenyl)-acetamide] | >75% | > 75% | – | –
20 | 1000 to 10000 nM | 1000 to 10000 nM | – | COc1ccc(S(=O)(=O)Nc2cccc(C(=O)CSC3=NCCS3)c2)cc1OC [Compound 30] | >75% | > 75% | – | –
21 | > 10000 nM | 1000 to 10000 nM | – | CC(=O)Nc1ccc(C(=O)CSC2=NCCS2)cc1 [Compound 21] | >75% | > 75% | – | –
22 | 1000 to 10000 nM | 1000 to 10000 nM | – | O=C(CSC1=NCCS1)c1ccc(Cl)c(Cl)c1 [Compound 15] | >75% | > 75% | – | –
23 | > 10000 nM | – | active | COc1cccc(C(=O)CSC2=NCCS2)c1 [Compound 20] | >75% | – | – | –
24 | 1000 to 10000 nM | < 1000 nM | – | COc1ccc(S(=O)(=O)Nc2ccc(C(=O)CSC3=NCCS3)cc2)cc1OC [Compound 26, N-{4-[2-(4,5-Dihydro-thiazol-2-ylsulfanyl)-acetyl]-phenyl}-3,4-dimethoxy-benzenesulfonamide] | >75% | > 75% | – | –
25 | < 1000 nM | – | active | N#CSCC(=O)c1ccc2c(c1)OCCO2 [Compound 5] | >75% | – | – | –
26 | < 1000 nM | > 10000 nM | – | O=C1CSC(SCC(=O)c2ccccc2)=N1 [Compound 32] | >75% | > 50% | – | –
27 | > 10000 nM | – | active | COc1ccc(C(=O)CSC2=NCCS2)cc1OC [Compound 25] | <50% | – | – | –
28 | 1000 to 10000 nM | 1000 to 10000 nM | – | O=C(CSC1=NCCS1)c1cccc(NS(=O)(=O)c2ccc(OC(F)(F)F)cc2)c1 [Compound 31] | >75% | > 75% | – | –
29 | < 1000 nM | > 10000 nM | – | O=C1CSC(SCC(=O)c2ccc(Br)cc2)=N1 [Compound 33] | >75% | > 75% | – | –
30 | 1000 to 10000 nM | 1000 to 10000 nM | – | O=C(CSC1=NCCS1)c1ccc(NS(=O)(=O)c2ccc(OC(F)(F)F)cc2)cc1 [Compound 27, N-{4-[2-(4,5-Dihydro-thiazol-2-ylsulfanyl)-acetyl]-phenyl}-4-trifluoromethoxy-benzenesulfonamide] | >75% | > 75% | – | –
31 | > 10000 nM | 1000 to 10000 nM | – | O=C(CSC1=NCCS1)c1ccc2c(c1)OCCO2 [Compound 19] | >75% | > 50% | – | –
32 | < 1000 nM | 1000 to 10000 nM | – | N#CSCC(=O)c1ccc(Cl)c(Cl)c1 [Compound 3] | >75% | 104% | – | –
33 | > 10000 nM | – | active | COc1ccc(C(=O)CSC2=NCCS2)cc1 [Compound 23] | >50% | – | – | –
34 | > 10000 nM | > 10000 nM | – | O=C(CSC1=NCCS1)c1ccccc1 [Compound 14, 2-(4,5-Dihydro-thiazol-2-ylsulfanyl)-1-phenyl-ethanone] | >75% | < 50% | – | –
35 | > 10000 nM | – | active | O=C(CSC1=NCCS1)c1ccc(N2CCCC2)cc1 [Compound 24] | >50% | – | – | –
36 | > 10000 nM | 1000 to 10000 nM | – | CCN(CC)c1ccc(C(=O)CSC2=NCCS2)cc1 [Compound 22] | <50% | < 50% | – | –
37 | < 1000 nM | 1000 to 10000 nM | – | O=C1CSC(SCC(=O)c2ccc3c(c2)OCCO3)=N1 [Compound 34, 2-[2-(2,3-Dihydro-benzo[1,4]dioxin-6-yl)-2-oxo-ethylsulfanyl]-thiazol-4-one] | >75% | > 75% | – | –
38 | > 10000 nM | – | active | O=C(CSC1=NCCS1)c1ccc(Cl)cc1 [Compound 17] | >75% | – | – | –
39 | 1000 to 10000 nM | – | active | O=C(CSC1=NCCS1)c1cccc(Br)c1 [Compound 16] | >75% | – | – | –
40 | > 10000 nM | – | active | O=C(CSC1=NCCS1)c1ccc(Br)cc1 [Compound 18] | >75% | – | – | –
